# Target: T1, olfactory receptor co-receptor (Orco) (Anopheles gambiae, UniProt Q7QCC7)
# T1 construct: codon-optimized Orco cDNA in pPICZA (C-terminal c-myc tag detected), expressed in Pichia pastoris GS115
# T1 sequence (Q7QCC7 1-478): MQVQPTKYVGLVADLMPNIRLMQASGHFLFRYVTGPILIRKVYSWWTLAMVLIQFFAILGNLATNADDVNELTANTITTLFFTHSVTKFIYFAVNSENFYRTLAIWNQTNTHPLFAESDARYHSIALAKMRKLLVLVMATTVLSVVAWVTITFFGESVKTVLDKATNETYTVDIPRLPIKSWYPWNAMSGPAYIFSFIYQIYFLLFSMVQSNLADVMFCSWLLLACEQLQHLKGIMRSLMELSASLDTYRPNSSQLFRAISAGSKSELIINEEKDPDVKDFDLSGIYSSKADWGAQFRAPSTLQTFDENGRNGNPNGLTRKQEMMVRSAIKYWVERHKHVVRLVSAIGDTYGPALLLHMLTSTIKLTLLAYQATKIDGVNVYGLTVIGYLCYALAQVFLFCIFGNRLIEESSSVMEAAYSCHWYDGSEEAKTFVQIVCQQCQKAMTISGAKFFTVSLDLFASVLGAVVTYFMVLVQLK
# Experiment: fluo-4-AM calcium influx assay in Pichia pastoris expressing Orco, compared with GS115 control cells ([…] extracellular Ca2+)
# Assay type: cell-based
structure (smiles),measurement,value
"CCc1ccc(NC(=O)CSc2nnc(-c3cccnc3)n2CC)cc1 [VUAA1, 2‐(4‐ethyl‐5‐(pyridin‐3‐yl)‐4H‐1,2,4‐triazol‐3‐ylthio)‐N‐(4‐ethylphenyl)acetamide]",EC50,410 µM
